The record followed here is PubChem BioAssay AID192 (DTP/NCI, 2004).

Values joined by “and” are separate entries in the source; they are usually repeats but may differ in a detail not shown here. Equal values may be shown once. Inconclusive results and toxic doses are left out.

For this assay, the system named is BDF1 mice, B16 melanoma ip, median survival T/C. Description: NCI In Vivo Anticancer Drug Screen. Data for tumor model B16 Melanoma (intraperitoneal) in B6D2F1 (BDF1) mice. The note with it: endpoint: median survival time, higher = longer survival. Put shortly: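 Values are ratios of treated (T) to vehicle-control (C) measurements of survival or tumor size in tumor-bearing mice.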

[1] abbreviates: dose: 6.25 mg/kg/injection, schedule: Q01DX009 (ip), vehicle: saline with Tween-80.
Where [2] appears, read: dose: 50.0 mg/kg/injection, schedule: Q01DX009 (ip), vehicle: saline.
The mark [3] stands for this setting: dose: 100.0 mg/kg/injection, schedule: Q01DX009 (ip), vehicle: saline.
Where [4] appears, read: dose: 200.0 mg/kg/injection, schedule: Q01DX009 (ip), vehicle: saline.
[5] abbreviates: dose: 400.0 mg/kg/injection, schedule: Q01DX009 (ip), vehicle: saline.
The mark [6] stands for this setting: dose: 12.5 mg/kg/injection, schedule: Q01DX009 (ip), vehicle: Klucel (hydroxypropylcellulose) (HPC).
[7] abbreviates: dose: 25.0 mg/kg/injection, schedule: Q01DX009 (ip), vehicle: Klucel (hydroxypropylcellulose) (HPC).
[8] abbreviates: dose: 50.0 mg/kg/injection, schedule: Q01DX009 (ip), vehicle: Klucel (hydroxypropylcellulose) (HPC).
[9] abbreviates: dose: 12.5 mg/kg/injection, schedule: Q01DX009 (ip), vehicle: saline with Tween-80.
Where [10] appears, read: dose: 100.0 mg/kg/injection, schedule: Q01DX009 (ip), vehicle: Klucel (hydroxypropylcellulose) (HPC).
Where [11] appears, read: dose: 200.0 mg/kg/injection, schedule: Q01DX009 (ip), vehicle: Klucel (hydroxypropylcellulose) (HPC).
The mark [12] stands for this setting: dose: 25.0 mg/kg/injection, schedule: Q01DX009 (ip), vehicle: saline with Tween-80.
[13] abbreviates: dose: 50.0 mg/kg/injection, schedule: Q01DX009 (ip), vehicle: saline with Tween-80.
The mark [14] stands for this setting: dose: 100.0 mg/kg/injection, schedule: Q04DX003 (ip), vehicle: saline with Tween-80.
The mark [15] stands for this setting: dose: 200.0 mg/kg/injection, schedule: Q04DX003 (ip), vehicle: saline with Tween-80.
The mark [16] stands for this setting: dose: 400.0 mg/kg/injection, schedule: Q04DX003 (ip), vehicle: saline with Tween-80.
The mark [17] stands for this setting: dose: 6.25 mg/kg/injection, schedule: Q01DX009 (ip), vehicle: Klucel (hydroxypropylcellulose) (HPC).
Where [18] appears, read: dose: 100.0 mg/kg/injection, schedule: Q01DX009 (ip), vehicle: saline with Tween-80.
Setting [19] is: dose: 200.0 mg/kg/injection, schedule: Q01DX009 (ip), vehicle: saline with Tween-80.
Where [20] appears, read: dose: 400.0 mg/kg/injection, schedule: Q01DX009 (ip), vehicle: saline with Tween-80.

As to `N#CCC(=O)O`, the T/C runs as follows: (dose: 18.75 mg/kg/injection, schedule: Q01DX009 (ip), vehicle: saline) 109 % of control; (dose: 37.5 mg/kg/injection, schedule: Q01DX009 (ip), vehicle: saline) 97 % of control.

On to `C[n+]1c2ccccc2cc2ccccc21`, for which the T/C (dose: 1.56 mg/kg/injection, schedule: Q01DX009 (ip), vehicle: saline with Tween-80) is 97 % of control; the T/C under setting [1] was 90 % of control and 94 % of control.

For the compound `NC(CCC(=O)NCC(=O)O)C(=O)O` (stereo unspecified), the T/C is, setting by setting: under setting [2], 92 % of control; under setting [3], 91 % of control; under setting [4], 101 % of control; under setting [5], 88 % of control.

As for `O=C(Nc1cccc(C(F)(F)F)c1)c1cccc(C(=O)Nc2cccc(C(F)(F)F)c2)c1`, the T/C was 101 % of control under setting [6], 106 % of control under setting [7] and 108 % of control under setting [8].

`COc1ccc(Nc2c3ccccc3nc3ccccc23)cc1`: the T/C under setting [9] is 120 % of control.

Turning to `CC1(C)N=C(N)N=C(N)N1c1cccc(CC(=O)Nc2ccc(S(=O)(=O)F)cc2)c1`, the T/C is, setting by setting: under setting [7], 103 % of control; under setting [8], 102 % of control; under setting [10], 109 % of control; (dose: 150.0 mg/kg/injection, schedule: Q01DX009 (ip), vehicle: Klucel (hydroxypropylcellulose) (HPC)) 109 % of control.

Consider `CC(C)(C)NC(=O)CCC(CC(=O)NC(C)(C)C)S(=O)(=O)O` (stereo unspecified), for which the T/C is, setting by setting: under setting [2], 118 % of control; under setting [3], 112 % of control; under setting [4], 93 % of control.

Take `Cc1cc(=O)n2c3c(c(N)ccc13)OC2`: the T/C was 100 % of control under setting [10] and 92 % of control under setting [11].

Regarding `CC(C)=CC(=O)CC(O)(C(F)(F)F)C(F)(F)Cl` (stereo unspecified), the T/C was 97 % of control under setting [1]; 100 % of control (dose: 6.25 mg/kg/injection, schedule: Q04DX003 (ip), vehicle: saline); 90 % of control under setting [9]; 89 % of control (dose: 12.5 mg/kg/injection, schedule: Q04DX003 (ip), vehicle: saline); 92 % of control under setting [12]; 89 % of control (dose: 25.0 mg/kg/injection, schedule: Q04DX003 (ip), vehicle: saline).

For `CC(=O)c1ccc2ccccc2c1O`, the T/C was 107 % of control under setting [9]; 93 % of control under setting [12]; 106 % of control under setting [13]; 100 % of control under setting [14]; 110 % of control under setting [15]; 100 % of control under setting [16].

Turning to `O=c1oc(-c2ccccc2Cl)nc2cc(Cl)ccc12`, the T/C by setting is: under setting [7], 113 % of control; under setting [8], 90 % of control.

Turning to `NC(=O)N1CCN(CCCN2c3ccccc3Sc3cc(Cl)ccc32)CC1`, the T/C is 92 % of control (dose: 3.12 mg/kg/injection, schedule: Q01DX009 (ip), vehicle: Klucel (hydroxypropylcellulose) (HPC)); 98 % of control under setting [17]; 101 % of control under setting [6]; 106 % of control under setting [7].

As for `CCCC(=O)OC1C=C2N3C(=O)C4CC56C(=CC(OC(C)=O)C7OC75)N4C(=O)C3CC26C2OC12` (stereo unspecified), the T/C runs as follows: (dose: 0.13 mg/kg/injection, schedule: Q01DX009 (ip), vehicle: Klucel (hydroxypropylcellulose) (HPC)) 90 % of control; (dose: 0.25 mg/kg/injection, schedule: Q01DX009 (ip), vehicle: Klucel (hydroxypropylcellulose) (HPC)) 101 % of control; (dose: 0.5 mg/kg/injection, schedule: Q01DX009 (ip), vehicle: Klucel (hydroxypropylcellulose) (HPC)) 90 % of control.

On to `O=C1c2ccccc2-c2ncccc21`, for which the T/C is 100 % of control under setting [8], 87 % of control under setting [10] and 96 % of control under setting [11].

As to `CC1C=NNC1=O` (stereo unspecified), the T/C under setting [12] is 90 % of control; the T/C under setting [13] is 90 % of control; the T/C under setting [18] is 95 % of control; the T/C (dose: 100.0 mg/kg/injection, schedule: Q04DX003 (ip), vehicle: other) is 105 % of control; the T/C (dose: 125.0 mg/kg/injection, schedule: Q01DX009 (ip), vehicle: other) is 105 % of control; the T/C (dose: 125.0 mg/kg/injection, schedule: Q04DX003 (ip), vehicle: other) was 100 % of control. The T/C is 90 % of control under setting [19]; 95 % of control (dose: 200.0 mg/kg/injection, schedule: Q04DX003 (ip), vehicle: other); 100 % of control (dose: 250.0 mg/kg/injection, schedule: Q01DX009 (ip), vehicle: other); 100 % of control (dose: 250.0 mg/kg/injection, schedule: Q04DX003 (ip), vehicle: other); 197 % of control (dose: 266.0 mg/kg/injection, schedule: Q04DX003 (ip), vehicle: saline with Tween-80); 116 % of control under setting [20]. The T/C is 92 % of control (dose: 400.0 mg/kg/injection, schedule: Q04DX003 (ip), vehicle: other); 200 % of control under setting [16]; 111 % of control (dose: 500.0 mg/kg/injection, schedule: Q01DX009 (ip), vehicle: other); 102 % of control (dose: 500.0 mg/kg/injection, schedule: Q04DX003 (ip), vehicle: other); 183 % of control (dose: 600.0 mg/kg/injection, schedule: Q04DX003 (ip), vehicle: saline with Tween-80).

For the compound `CCN(CC)CCCC(C)Nc1ccnc(/C=C/c2ccc(Cl)cc2)c1` (stereo unspecified), the T/C under setting [6] was 86 % of control; the T/C (dose: 18.75 mg/kg/injection, schedule: Q04DX003 (ip), vehicle: saline) is 86 % of control; the T/C under setting [7] was 92 % of control; the T/C (dose: 37.5 mg/kg/injection, schedule: Q04DX003 (ip), vehicle: saline) was 93 % of control; the T/C (dose: 75.0 mg/kg/injection, schedule: Q04DX003 (ip), vehicle: saline) is 89 % of control.

For the compound `Cc1cc(=O)[nH]o1`, the T/C was 106 % of control under setting [3], 105 % of control under setting [4] and 99 % of control under setting [5].

Take `COB1OB(OC)OB(OC)O1`: the T/C is 103 % of control under setting [13]; 104 % of control under setting [18]; 105 % of control under setting [14]; 102 % of control under setting [19]; 112 % of control under setting [15]; 98 % of control under setting [20]. Moreover, the T/C under setting [16] is 110 % of control.

On to `CCCCCCCC(O)CCCC` (stereo unspecified), for which the T/C is 92 % of control under setting [10]; 98 % of control under setting [11]; 86 % of control (dose: 400.0 mg/kg/injection, schedule: Q01DX009 (ip), vehicle: Klucel (hydroxypropylcellulose) (HPC)).

As for `CC(=O)Nc1c(Cl)c(Cl)c2c(c1Cl)Cc1cc(Br)ccc1-2`, the T/C reads like this: (dose: 1.5 mg/kg/injection, schedule: Q01DX009 (ip), vehicle: saline with Tween-80) 94 % of control; (dose: 3.0 mg/kg/injection, schedule: Q01DX009 (ip), vehicle: saline with Tween-80) 94 % of control; (dose: 6.0 mg/kg/injection, schedule: Q01DX009 (ip), vehicle: saline with Tween-80) 100 % of control; (dose: 12.0 mg/kg/injection, schedule: Q01DX009 (ip), vehicle: saline with Tween-80) 92 % of control; under setting [9], 97 % of control.

Turning to `CC(=O)OCc1c(O)c2c(c(O)c1COC(C)=O)C(=O)C=CC2=O`, the T/C is, setting by setting: under setting [17], 94 % of control; under setting [6], 91 % of control; under setting [7], 89 % of control.

Take `COc1ccc(NC(=O)Nc2cc(Cl)ccc2OC)cc1`: the T/C reads like this: under setting [7], 92 % of control; under setting [8], 92 % of control.

Regarding `CN(C)/N=N/c1[nH]ncc1C(N)=O`, the T/C (dose: 50.0 mg/kg/injection, schedule: Q01DX009 (ip), vehicle: carboxymethylcellulose (CMC)) was 105 % of control.
